Test results taken from patent EP4667468A1, “COMPOUND FOR INHIBITING NLRP3, PREPARATION METHOD, AND USE” (Shenzhen Zhongge Biological Technology Co., Ltd., priority 2023, dated 2024).

Tests used:
[1] = target: IL-1β secretion of THP-1 cells (Homo sapiens, UniProt Q96P20); assay: Effect of NLRP3 inhibitor on IL-1β secretion of THP-1 cells (AlphaLISA); type: cell-based; details: PMA 50nM, LPS 100ng/ml, Nigericin 10µM, IL-1β in supernatant
Method: This experiment used the PerkinElmer AlphaLISA_human_IL1β kit (AL220 C/F). The detection buffer was RPMI-1640+10FBS. AlphaLISA Immunoassay Buffer, AlphaLISA Anti-IL1β Acceptor beads, Streptavidin (SA)-coated Donor beads, and Biotinylated Antibody Anti-IL1β were all included in the kit.
The density of THP1 cells was adjusted to 4×10^5 cells/mL, PMA (final concentration 50nM) was added, inoculated into 96-well flat-bottom plates at 200µL/well, and stimulated overnight at 37°C, 5% CO2 (try to <16h). The next day, the supernatant was discarded, and the flat washed twice with DPBS (200µL/time). Then LPS solution (final concentration of 100ng/ml) was added at 198µL/well , incubated at 37°C, 5% CO2 for 3h. 1µL of the corresponding concentration of compounds was added to each well according to the experimental MAP, incubated at 37°C, 5% CO2 for 1h. 1µL Nigericin (final concentration of 10µM) was added to each well, incubated overnight at 5% CO2 (>18h). On the third day, 5µL of supernatant was taken, diluted 20 times, and the content of IL-Iβ in the supernatant was detected by Human Interleukin 1 beta (IL1β) Kit. Envision was used to read the AlphaLISA test value of Ex = 680/ Em = […]. GraphPad Prism 9.5.0 was used to analyze the data, and the IC50 value of the compound for IL-Iβ antagonism was fitted by four-parameter Logistic. […] Table 2: Results of IC50 experiments using THP-1 cells to detect NLRP3 inhibitors

[2] = tested on: iodoacetic acid (MIA)-induced SD rat knee osteoarthritis model; assay: Efficacy on iodoacetic acid-induced SD rat knee osteoarthritis model; type: in vivo, SD rats; details: 30mg/kg orally once a day from Day 7 to Day 42; for widening of the knee joints: compared with the model blank control group, 21 days to 42 days after modeling
Method: Purpose: Evaluate the efficacy of MCC950 (Positive reference compound) and compound 111 of the present invention on iodoacetic acid (MIA)-induced SD rat knee osteoarthritis model. Experimental materials: Experimental male SD rats, 4 weeks old. Model induction began after the experimental animals were adapted to the animal environment for 7 days. Day 0, the rats were anesthetized, the hair around the left knee joint was removed, and the skin was disinfected. The left leg was flexed 90° to expose the patellar platform. The depression in the middle of the platform was touched by hand to find the femoral condyle, patella and ligament. The syringe needle was inserted from the bottom of the patella on both sides of the patellar ligament to the direction of the femoral condyle. When a clear sense of empty space was felt, 50µL of iodoacetic acid solution was injected. Day 7 Grouping was performed according to the width of the knee joint on the induced side. The groups were: normal control group (healthy control without modeling, 5% DMSO+10% Solutol+85% Saline), model blank control group (5% DMSO+10% Solutol+85% Saline), MCC950 30mg/kg, and compound 111 of the present invention 30mg/kg. Starting from Day 7, the normal control group and the model blank control group were given the solvent (5% DMSO+10% Solutol+85% Saline) orally once a day, and the other groups were given the corresponding compounds orally once a day until the end of the administration on Day 42. The knee joint width and body weight of the rats were measured once on Day 7, 14, 21, 28, 35, and 42. This experiment tested the efficacy of MCC950 (Positive compound) and compound 111 of the present invention on the SD rat knee osteoarthritis model induced by iodoacetic acid (MIA), see Figures 1 and 2.

[3] = Liver microsome metabolic stability, human; type: in vitro ADME, humans; details: human (h) liver microsomes 0.5 mg/ml, 45 min; read-out: LMS (h,r,m) (% rem, 45 min)
Method: (§1) Purpose: This experiment investigates the metabolic stability of the compound in liver microsomes of different species such as humans, mice and rats, and the residual content of the test compound after incubation with liver microsomes of different species such as humans, mice and rats.
(§2) Preparation of 500 µM solution of target compound and positive control: 5 µL of each 10 mM stock solution was taken, added to 95 µL acetonitrile, and mixed for 30 s;
(§3) Preparation of 6 mM NADPH solution: 100 mM Stock aliquot liquid was diluted with Mg-Mg-K-Buffer.
(§4) • 2.1.1 Liver microsome solution: 18.75 µL of 20 mg/mL HLM, RLM, MLM, DLM, MOLM (final concentration: 0.5 mg/ml) were taken and placed them in each well of a 96-well plate; • 2.1.2 1.5 µL of 500 µM solution of each compound was added respectively; • 2.1.3 479.8 µL of phosphate buffer was taken, then added to each compound well, and mixed at 1000 rpm in an oscillating mixer for 10 s.
(§5) 30 µL of the above samples were taken and aliquoted to a new 96-well plates respectively (including NADPH group, n=2, and no NADPH group at 0 and 45 min, n=1), marked as 0, 5, 15, 30 and 45 min; […]
(§6) The slope was calculated based on the LN value of the compound concentration percentage and time as the coordinate axis, and the residual content of the compound after incubation with liver microsomes was calculated based on the slope and formula. […]

[4] = Liver microsome metabolic stability, mouse; type: in vitro ADME, mice; details: mouse (m) liver microsomes 0.5 mg/ml, 45 min; read-out: LMS (h,r,m) (% rem, 45 min)
Method: as §1, §2, §3, §4, §5, §6

[5] = Liver microsome metabolic stability, rat; type: in vitro ADME, rats; details: rat (r) liver microsomes 0.5 mg/ml, 45 min; read-out: LMS (h,r,m) (% rem, 45 min)
Method: as §1, §2, §3, §4, §5, §6

IL-1β secretion of THP-1 cells, sequence (Q96P20 whole entry): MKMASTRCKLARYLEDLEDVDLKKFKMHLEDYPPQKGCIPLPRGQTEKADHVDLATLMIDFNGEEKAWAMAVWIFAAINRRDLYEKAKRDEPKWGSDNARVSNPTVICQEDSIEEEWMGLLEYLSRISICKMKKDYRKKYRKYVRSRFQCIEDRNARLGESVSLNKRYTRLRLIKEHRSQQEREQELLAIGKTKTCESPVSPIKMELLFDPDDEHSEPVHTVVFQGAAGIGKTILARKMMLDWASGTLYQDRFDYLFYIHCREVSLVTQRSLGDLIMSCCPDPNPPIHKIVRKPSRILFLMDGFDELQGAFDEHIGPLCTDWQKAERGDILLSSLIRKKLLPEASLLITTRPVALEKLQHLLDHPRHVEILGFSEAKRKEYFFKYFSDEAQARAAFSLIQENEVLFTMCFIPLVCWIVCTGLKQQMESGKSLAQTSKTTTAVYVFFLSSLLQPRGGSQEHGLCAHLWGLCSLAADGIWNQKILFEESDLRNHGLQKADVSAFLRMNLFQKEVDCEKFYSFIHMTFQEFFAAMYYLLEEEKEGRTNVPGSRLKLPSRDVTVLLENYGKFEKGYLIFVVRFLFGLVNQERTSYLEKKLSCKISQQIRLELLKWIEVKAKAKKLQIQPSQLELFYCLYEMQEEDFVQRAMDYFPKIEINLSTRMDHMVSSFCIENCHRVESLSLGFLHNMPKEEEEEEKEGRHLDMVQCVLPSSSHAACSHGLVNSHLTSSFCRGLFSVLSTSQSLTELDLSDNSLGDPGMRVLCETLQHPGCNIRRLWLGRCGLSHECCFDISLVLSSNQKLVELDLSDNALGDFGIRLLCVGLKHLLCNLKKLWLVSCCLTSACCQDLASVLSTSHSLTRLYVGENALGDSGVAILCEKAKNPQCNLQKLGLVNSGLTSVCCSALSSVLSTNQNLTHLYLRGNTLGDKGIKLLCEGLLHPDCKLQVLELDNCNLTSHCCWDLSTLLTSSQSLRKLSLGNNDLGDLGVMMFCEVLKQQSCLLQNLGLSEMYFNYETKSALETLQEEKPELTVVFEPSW

IC50 [1] [nM]	SMILES	further results
< 50	CCN1CCC[C@@H](n2ccc3cc(-c4c(C)cc(C(F)(F)F)cc4O)nnc32)C1 [11-a]	–
< 50	CCN1CCC[C@@H](N2CC(=O)Nc3cc(-c4c(C)cc(C(F)(F)F)cc4O)nnc32)C1 [12-a]	–
100 to 500	Cc1cc(C(F)(F)F)cc(O)c1-c1ccc2[nH]c(NCC(C)(C)O)nc2n1 [Compound 6]	–
–	CC(=O)N1CCOC[C@H]1CNc1nc2nc(-c3c(C)cc(C(F)(F)F)cc3O)ccc2o1 [Compound 111]	body weight of the rats [2]: without affecting the body weight of the rats; widening of the knee joints [2]: significantly inhibit the widening of the knee joints; remaining at 0.75 h, 1 µM [3]: 93.2%; remaining at 0.75 h, 1 µM [4]: 91.3%; remaining at 0.75 h, 1 µM [5]: 82.5%
–	CC(C)(O)c1coc(S(=O)(=O)NC(=O)Nc2c3c(cc4c2CCC4)CCC3)c1 [MCC950, reference compound]	widening of the knee joints [2]: significantly inhibit the widening of the knee joints
50 to 100	Cc1cc(C(F)(F)F)cc(O)c1-c1ccc2oc(N3CCOC[C@H]3C)nc2n1 [compound 371]	–
< 50	Oc1cc(Cl)cc(O)c1-c1ccc2oc(N3CCOCC3)nc2n1 [compound 376]	–
100 to 500	Cc1cc(C(F)(F)F)cc(O)c1-c1ccc2oc(N3CC4CCC(C3)O4)nc2n1 [compound 381]	–
< 50	Cc1cc(C(F)(F)F)cc(O)c1-c1ccc2oc(N3CCS(=O)(=O)CC3)nc2n1 [compound 384]	–
50 to 100	Cc1cc(Cl)cc(O)c1-c1ccc2oc(N3CCS(=O)(=O)CC3)nc2n1 [compound 387]	–
50 to 100	CCS(=O)(=O)N1CCN(c2nc3nc(-c4c(C)cc(C(F)(F)F)cc4O)ccc3o2)CC1 [compound 388]	–
< 50	Cc1cc(C(F)(F)F)cc(O)c1-c1ccc2oc(N3CCN(S(C)(=O)=O)CC3)nc2n1 [compound 390]	–
< 50	Cc1cc(C(F)(F)F)cc(O)c1-c1ccc2oc(N3CCN(S(=O)(=O)C4CC4)CC3)nc2n1 [compound 392]	–
50 to 100	CCS(=O)(=O)N1CCN(c2nc3nc(-c4c(C)cc(C(F)(F)F)cc4O)ccc3o2)C[C@@H]1C [compound 394]	–
100 to 500	CCN1C[C@H](F)C[C@@H](Nc2nc3nc(-c4c(C)cc(C(F)(F)F)cc4O)ccc3o2)C1 [compound 397]	–
< 50	Cc1cc(C(F)(F)F)cc(O)c1-c1ccc2oc(N[C@@H]3CCCN(C4CC4)C3)nc2n1 [compound 399]	–
< 50	Cc1cc(C(F)(F)F)cc(O)c1-c1ccc2oc(N[C@@H]3CCCN(C(C)C)C3)nc2n1 [compound 400]	–
< 50	Cc1cc(C(F)(F)F)cc(O)c1-c1ccc2oc(N[C@@H]3CCCN(CCO)C3)nc2n1 [compound 404]	–

IC50 [1] [nM]	SMILES	further results
50 to 100	Cc1cc(C(F)(F)F)cc(O)c1-c1ccc2oc(NC[C@@H](C)O)nc2n1 [compound 413]	–
100 to 500	Cc1cc(C(F)(F)F)cc(O)c1-c1ccc2nc(N3CCS(=O)(=O)CC3)nn2n1 [compound 422]	–
100 to 500	Cc1cc(C(F)(F)F)cc(O)c1-c1ccc2nc(N3CCOCC3)nn2n1 [compound 423]	–
< 50	Cc1cc(C(F)(F)F)cc(O)c1-c1cc(C)c2nc(N3CCOCC3)nn2n1 [compound 424]	–
< 50	Cc1cc(C(F)(F)F)cc(O)c1-c1ccn2nc(N3CCOCC3)nc2n1 [compound 426]	–
< 50	CCN1CCC[C@@H](Nc2nc3ccc(-c4c(C)cc(C(F)(F)F)cc4O)nn3n2)C1 [compound 439]	–
50 to 100	Cc1cc(C(F)(F)F)cc(O)c1-c1cc(C)n2nc(N3CCOCC3)nc2n1 [compound 440]	–
< 50	CC(=O)NC[C@@H]1COCCN1c1nc2nc(-c3c(C)cc(C(F)(F)F)cc3O)cc(C)n2n1 [compound 441]	–
< 50	CC(=O)NC[C@@H]1COCCN1c1nc2c(C)cc(-c3c(C)cc(C(F)(F)F)cc3O)nn2n1 [compound 442]	–
< 50	Cc1cc(C(F)(F)F)cc(O)c1-c1cc(C)n2nc(N[C@@H]3CCCN(C)C3)nc2n1 [compound 443]	–
< 50	Cc1cc(C(F)(F)F)cc(O)c1-c1ccn2nc(N[C@@H]3CCCN(C)C3)nc2n1 [compound 444]	–
< 50	Cc1cc(C(F)(F)F)cc(O)c1-c1ccc2nc(N[C@@H]3CCCN(C)C3)nn2n1 [compound 445]	–
< 50	Cc1cc(C(F)(F)F)cc(O)c1-c1cc(C)c2nc(N[C@@H]3CCCN(C)C3)nn2n1 [compound 446]	–
< 50	CCN1CCC[C@@H](Nc2nc3c(C)cc(-c4c(C)cc(C(F)(F)F)cc4O)nn3n2)C1 [compound 447]	–
< 50	CCN1CCC[C@@H](Nc2nc3nc(-c4c(C)cc(C(F)(F)F)cc4O)ccn3n2)C1 [compound 448]	–
< 50	Cc1cc(C(F)(F)F)cc(O)c1-c1cc(C)n2nc(N[C@H]3CCCN(CCO)C3)nc2n1 [compound 460]	–
< 50	CCN1CCC[C@H](Nc2nc3nc(-c4c(C)cc(C(F)(F)F)cc4O)cc(C)n3n2)C1 [compound 462]	–
